Experimental data: ChEMBL document CHEMBL3351224 (ACS Med Chem Lett, 2014)

What was measured:
[1] = target: T1, Cysteinyl leukotriene receptor 1 (Homo sapiens, UniProt Q9Y271); experiment: Antagonist activity at human CysLT1 receptor expressed in CHO cells assessed as inhibition of LTD4-inudced intracellular calcium influx preincubated for 30 mins before LTD4 addition by Fura2-AM assay; format: functional, cell-based
T1 sequence (Q9Y271 whole entry): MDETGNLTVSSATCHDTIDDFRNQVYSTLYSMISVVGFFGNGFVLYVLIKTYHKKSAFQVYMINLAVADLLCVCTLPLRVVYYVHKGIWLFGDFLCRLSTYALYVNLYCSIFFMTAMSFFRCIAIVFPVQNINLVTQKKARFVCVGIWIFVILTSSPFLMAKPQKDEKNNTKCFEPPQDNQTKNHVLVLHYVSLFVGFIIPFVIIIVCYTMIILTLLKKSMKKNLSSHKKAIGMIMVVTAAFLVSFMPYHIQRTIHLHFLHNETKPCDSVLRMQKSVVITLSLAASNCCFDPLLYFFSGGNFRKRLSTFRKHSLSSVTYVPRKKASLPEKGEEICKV

[2] = target: T2, Cysteinyl leukotriene receptor 2 (Homo sapiens, UniProt Q9NS75); experiment: Antagonist activity at human CysLT2 receptor expressed in HEK293 cells assessed as inhibition of LTD4-inudced intracellular calcium influx preincubated for 30 mins before LTD4 addition by Fura2-AM assay; format: functional, cell-based
T2 sequence (Q9NS75 whole entry): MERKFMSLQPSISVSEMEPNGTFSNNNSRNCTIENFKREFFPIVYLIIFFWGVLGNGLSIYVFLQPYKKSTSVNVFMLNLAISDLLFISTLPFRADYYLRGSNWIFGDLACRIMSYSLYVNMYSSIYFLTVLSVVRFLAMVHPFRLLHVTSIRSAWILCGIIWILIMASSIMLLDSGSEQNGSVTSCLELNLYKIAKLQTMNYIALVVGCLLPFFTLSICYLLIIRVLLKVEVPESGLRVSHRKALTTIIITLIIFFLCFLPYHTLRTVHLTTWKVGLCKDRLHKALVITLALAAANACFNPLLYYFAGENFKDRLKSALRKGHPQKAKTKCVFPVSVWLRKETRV

[3] = target: T3, Cysteinyl leukotriene receptor 2 (Homo sapiens) (UniProt Q9NS75); experiment: Antagonist activity at human CysLT2 receptor expressed in HEK293 cells assessed as inhibition of LTD4-inudced intracellular calcium influx preincubated at 10 uM for 30 mins before LTD4 addition by Fura2-AM assay; format: functional, cell-based
T3 sequence (whole entry): T2 sequence (Q9NS75 whole entry)

[4] = Clearance in rat at 1 mg/kg, iv; format: ADME, organism-based; parameters: dose 1 mg/kg, route intravenous; conditions: in vivo
[5] = Half life in rat at 1 mg/kg, iv; format: ADME, organism-based; parameters: dose 1 mg/kg, route intravenous; conditions: in vivo
[6] = Oral bioavailability in rat at 30 mg/kg; format: ADME, organism-based; conditions: in vivo
[7] = AUC in rat at 30 mg/kg, po; format: ADME, organism-based; parameters: dose 30 mg/kg, route oral; conditions: plasma

Row | Compound | IC50 [1] | IC50 [2] | further results
1 | CC(=O)N1CC(C(=O)O)Oc2c(NC(=O)c3ccc(OCCCCc4ccccc4)cc3)cccc21 (configuration not stated) | 13 nM | 3600 nM | 
2 | O=C(Nc1cccc2c1OC(C(=O)O)CN2)c1ccc(OCCCCc2ccccc2)cc1 (configuration not stated) | 54 nM | 4600 nM | 
3 | O=C(Nc1ccc2c(c1)NCC(C(=O)O)O2)c1ccc(OCCCCc2ccccc2)cc1 (configuration not stated) | 840 nM |  | inhibition [3]: 25%
4 | O=C(O)c1ccc(OCCCc2ccc(OCCCCOc3ccccc3)cc2)c(C(=O)NC2CCCC(C(=O)O)C2)c1 (configuration not stated) | > 2500 nM | 53 nM | 
5 | CCCC(=O)N1CC(C(=O)O)Oc2c(NC(=O)c3ccc(OCCCCc4ccccc4)cc3)cccc21 (configuration not stated) | 300 nM | 3700 nM | 
6 | O=C(O)CCCN1CC(C(=O)O)Oc2c(NC(=O)c3ccc(OCCOc4ccccc4)cc3)cccc21 (configuration not stated) | 3000 nM | 1500 nM | 
7 | O=C(O)CCC(=O)N1CC(C(=O)O)Oc2c(NC(=O)c3ccc(OCCCCc4ccccc4)cc3)cccc21 (configuration not stated) | 1.4 nM | 890 nM | 
8 | O=C(O)CCCCCN1CC(C(=O)O)Oc2c(NC(=O)c3ccc(OCCCCc4ccccc4)cc3)cccc21 (configuration not stated) | 130 nM | 290 nM | 
9 | O=C(O)CCCN1CC(C(=O)O)Oc2c(NC(=O)c3ccc(OCCCCc4ccccc4)cc3)cccc21 (configuration not stated) |  |  | clearance [4]: 4.7 mL/min/kg; half-life [5]: 3.4 h; bioavailability [6]: 1.5%; AUC [7]: 1600 ng·h/mL
10 | O=C(O)CCCCN1CC(C(=O)O)Oc2c(NC(=O)c3ccc(OCCCCc4ccccc4)cc3)cccc21 (configuration not stated) | 44 nM | 170 nM | 
11 | CCCCC/C=C\C\C=C/C=C/C=C/[C@@H](Sc1ccc(C(=O)O)cc1)[C@@H](O)CCCC(=O)O | 440 nM | 300 nM | 
12 | O=C(O)CCCN1CC(C(=O)O)Oc2c(NC(=O)c3ccc(OCCCCOc4ccccc4)cc3)cccc21 (configuration not stated) | 32 nM | 17 nM | 
13 | O=C(O)CCCC(=O)N1CC(C(=O)O)Oc2c(NC(=O)c3ccc(OCCCCc4ccccc4)cc3)cccc21 (configuration not stated) | < 1 nM | 1800 nM | 
14 | CCN(CC)C(=O)/C=C(\C)c1ccc2oc(C(=O)c3ccc(C#N)cc3)c(NC(=O)/C(C#N)=C(/C)O)c2c1 | 9700 nM | 7700 nM | 
15 | O=C(O)CCCCC(=O)N1CC(C(=O)O)Oc2c(NC(=O)c3ccc(OCCCCc4ccccc4)cc3)cccc21 (configuration not stated) | 12 nM | 890 nM | 
16 | O=C(O)CCCN1CC(C(=O)O)Oc2c(NC(=O)c3ccc(OCCCCCc4ccccc4)cc3)cccc21 (configuration not stated) | 120 nM | 0.62 nM | 
17 | O=C(O)CCCN1CC(C(=O)O)Oc2c(NC(=O)c3ccc(OCCCOc4ccccc4)cc3)cccc21 (configuration not stated) | 290 nM | 16 nM | 
18 | O=C(Nc1ccc2c(c1)OC(C(=O)O)CN2)c1ccc(OCCCCc2ccccc2)cc1 (configuration not stated) | 4600 nM |  | inhibition [3]: 36%
19 | CCC(=O)N1CC(C(=O)O)Oc2c(NC(=O)c3ccc(OCCCCc4ccccc4)cc3)cccc21 (configuration not stated) | 150 nM | 5200 nM | 
20 | O=C(O)CCCN1CC(C(=O)O)Oc2c(NC(=O)c3ccc(OCCCc4ccccc4)cc3)cccc21 (configuration not stated) | 1300 nM | 68 nM | 
